Consider two compounds from patent US9850276B2, “Bidentate-binding modulators of LRRK2 and JNK kinases” (THE SCRIPPS RESEARCH INSTITUTE, priority 2013, dated 2017).

For data set [1], the system named is cardiomyocyte apoptosis and infarct size. The following applies: rats; cited from earlier work.
For data set [2], the system named is H9c2 cells. The experiment in a line: Mitochondrial membrane potential under H2O2 (Rhodamine 123 detection). The data set is classed as cell-based. Conditions: 25 μM H2O2. As to the method: (§1) To test whether JNK mitochondrial localization had effects on mitochondrial function we measured the impact of Tat-Sab, and a small molecule JNK inhibitor, SR-3306 (commercially available from Calbiochem), on ROS generation and mitochondrial membrane depolarization in H9c2 cells treated with H2O2. The ROS fluorescence/cell in the absence of oxidative stress (PBS), was compared to treatment with either 25 μM H2O2, or 25 μM H2O2+500 nM SR-3306, or 25 μM H2O2+3 μM Tat-scramble peptide, or 25 μM H2O2+3 μM Tat-Sab peptide.
(§2) A similar effect was seen when mitochondrial membrane potential was measured by Rhodamine 123 detection. […] Similarly, both ROS generation and membrane depolarization effects elicited by oxidative stress in H92c cells were blocked by inhibition of JNK with the small molecule, SR-3306 (commercially available from Calbiochem). Finally, the effect of SR-3306 or Tat-Sab on cell viability in response to oxidative stress was measured by a Cell-Titer Glo luminescent assay. H9c2 cells treated with 25 μM H2O2 were ˜40% viable, whereas addition of 500 nM SR-3306 to cells treated with 25 μM H2O2 increased viability to ˜80%, and addition of 3 μM Tat-Sab peptide to cells treated with 25 μM H2O2 increased viability to ˜65% compared to 95% viable in untreated cells.

Data set [3] concerns H9c2 cells. Nature of the data set: ROS generation under H2O2 oxidative stress. The class given is cell-based. Conditions: 25 μM H2O2 + 500 nM SR-3306. As to the method:
as §1

Data set [4] has as its system H9c2 cells. Nature of the data set: Cell viability under oxidative stress (Cell-Titer Glo luminescent assay). The class given is cell-based. The following applies: 25 μM H2O2 + 500 nM SR-3306. As to the method:
as §2

The subject of data set [5] is infarct size in rat hearts. The experiment in a line: I/R MI rat model, 30 minutes ischemia and 24 hours reperfusion. The class given is in vivo. Conditions: 5 mg/kg SR-3306; anesthetized rats; p<0.05. As to the method: The in vivo efficacy of SR-3306 in anesthetized rats after 30 minutes ischemia and 24 hours reperfusion was evaluated.

With `N#CC(c1ccnc(NCCc2cccnc2)n1)c1nc2ccccc2s1` (centres unmarked) [AS601245], the “cardiomyocyte apoptosis and infarct size after I/R” value in data set [1] was “decreased cardiomyocyte apoptosis and infarct size”.
On to `Cc1ccc(-c2ncn(-c3ccc(Nc4nccc(-c5cccc(N6CCOCC6)c5)n4)cc3)n2)cn1` [SR-3306], for which, in the data set on H9c2 cells [2], the “mitochondrial membrane potential perturbation / depolarization” value is on record as “blocked”. The “reduction of ROS generation compared to 25 μM H2O2 treatment” value with H9c2 cells [3] is around 2 fold. In the data set on H9c2 cells [4], the cell viability – broadly, a read-out of living cells in per cent, often relative to untreated cells – is around 80%. In addition, the “infarct size (IS)” value in data set [5] is given as 23±3.5 % of AAR.
